We go through 10 molecules from patent publication US8455649B2, “Insecticidal substituted azinyl derivatives” (Dow AgroSciences, LLC, priority 2007, dated 2013).

The test system of test [1] is Corn Earworm (Helicoverpa zea). Kind of test: Insecticidal diet-surface test for corn earworm. In kind it is in vivo. Particulars: 120 h, second-instar larvae on treated diet, 50 μg/cm^2 on diet surface, 5 days after treatment, 8 insects per treatment, read-out: HELIZE AVG % Mortality (50 μg/cm^2). Put shortly: (§1)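 Second-instar larvae placed on lepidopteran diet surface-treated with 50 μL of 2000 ppm compound in 9 acetone:1 water (stated as 50 μg/cm^2), eight wells per species. Held 5 days at 25° C, 50-55% RH, 16:8 h light:dark; mortality of 8 larvae scored as percent control.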

For test [2], the system named is Beet Armyworm (Spodoptera exigua). Put plainly: Insecticidal diet-surface test for beet armyworm. It is filed as in vivo. The settings on record: 120 h, second-instar larvae on treated diet, 50 μg/cm^2 on diet surface, 5 days after treatment, 8 insects per treatment, read-out: LAPHEG AVG % Mortality (50 μg/cm^2). Put shortly: as §1

For the molecule `O=C(Nc1ccc(C(F)(F)F)cc1)Nc1nc(OCC(F)(F)C(F)F)cc(OCC(F)(F)C(F)F)n1` [Compound 175], the mortality at 50 µg/cm2 in test [1] and in test [2] was 100% each time.

`CN(C(=O)Nc1nc(OCC(F)(F)C(F)(F)F)cc(OCC(F)(F)C(F)(F)F)n1)c1ccc(C(F)(F)F)cc1` [Compound 176]: the mortality at 50 µg/cm2 in test [1] and in test [2] was 100% throughout.

Turning to `CN(C(=O)Nc1nc(OCC(F)(F)C(F)F)cc(OCC(F)(F)C(F)F)n1)c1ccc(C(F)(F)F)cc1` [Compound 177], the mortality at 50 µg/cm2 in test [1] and in test [2] was 100% each time.

As to `O=C(Nc1nc(OCC(F)(F)F)cc(OCC(F)(F)F)n1)Nc1c(Cl)cc(OC(F)(F)F)cc1Cl` [Compound 178], the mortality at 50 µg/cm2 in test [1] and in test [2] was 100% each time.

Turning to `O=C(Nc1nc(OCC(F)(F)F)cc(OCC(F)(F)F)n1)Nc1c(Cl)cc(Br)cc1Cl` [Compound 180], the mortality at 50 µg/cm2 in test [1] and in test [2] was 100% each time.

In the case of `CN(C(=O)Nc1nc(OCC(F)(F)F)cc(OCC(F)(F)F)n1)c1ccc(Br)c(C(F)(F)F)c1` [Compound 181], the mortality at 50 µg/cm2 in test [1] and in test [2] was 100% throughout.

As to `CN(C(=O)Nc1nc(OCC(F)(F)F)cc(OCC(F)(F)F)n1)c1cc(F)c(Br)cc1F` [Compound 182], the mortality at 50 µg/cm2 in test [1] and in test [2] was 100% each time.

As to `CN(C(=O)Nc1nc(OCC(F)(F)F)cc(OCC(F)(F)F)c1F)c1ccc(Br)cc1` [Compound 183, N′-[3-fluoro-4,6-bis(2,2,2-trifluoroethoxy)pyridin-2-yl]-N-methyl-N-(4-bromophenyl)urea], the figures for the mortality at 50 µg/cm2 in test [1] and in test [2] were 50% and 100%, respectively.

With `CN(C(=O)Nc1nc(OCC(F)(F)F)cc(OCC(F)(F)F)c1F)c1ccc(C(F)(F)F)cc1` [Compound 184], the mortality at 50 µg/cm2 in test [1] and in test [2] was 100% in each case.

For the molecule `CN(C(=O)Nc1nc(OCC(F)(F)F)cc(OCC(F)(F)F)c1F)c1ccc(OC(F)(F)F)cc1` [Compound 185], the mortality at 50 µg/cm2 in test [1] and in test [2] was 100% each time.
